Holding throughout (assay type): binding
In test [1] the target is T1, HDAC2 (Homo sapiens (Human), UniProt Q92769). As to the kind of experiment: Reporter displacement assay (HDAC2).
Test [2] has as its target T1, HDAC2. The test can be described thus: Reporter displacement assay (HDAC2). As to conditions: reporter probe displacement, Cheng Prusoff. As for the experimental part: HDAC2 containing a C-terminal HIS-Tag (Proteros) and fluorescently-labeled anti-HIS-antibody are diluted in one vial in assay buffer 50 mM Tris, pH 8.0, 1 mM DTT, 150 mM NaCl, and 0.01% Tween20. Components are pre-incubated for 30 min, then a small volume of reporter probe (Proteros) is added from a highly concentrated stock and incubation is continued for another 30 min. Final concentrations after adding the reporter probe amount to 20 nM HDAC2, 4 nM antibody, and 180 nM probe.
Ten μl/well of pre-formed complex are transferred into 384 well assay plates (Corning). Compounds to be profiled are serially diluted from […] in DMSO and 60 nl are added to assay plates by pintool transfer (CybiWell, Cybio). Fluorescence intensity signal is read after 4 h in a Pherastar FS (BMG Labtech) at 337/665 nm.
For Kd determination, percent probe displacement values are calculated for each compound concentration and plotted against the compound concentration. IC50-like values (corresponding to 50% probe displacement) are calculated using standard fitting algorithms. Since the reporter probe is used at a concentration reflecting its own Kd value, compound Kd values can be calculated according to the Cheng Prusoff equation.
In the table, “A” indicates a Kd value of less than 0.1 μM; “B” a Kd value of between 0.1 μM and 0.5 μM; “C” a Kd value of greater than 0.5 μM and less than or equal to 5.0 μM; and “D” a Kd value of greater than 5.0 μM.

A further test concerns the target HDAC1 (Homo sapiens (Human), UniProt Q13547). As to the kind of experiment: Reporter displacement assay (HDAC1). As to conditions: for Kd: reporter probe displacement, Cheng Prusoff. As for the experimental part: [The procedure below names another target; the source lists this target under the same test.] HDAC2 containing a C-terminal HIS-Tag (Proteros) and fluorescently-labeled anti-HIS-antibody are diluted in one vial in assay buffer 50 mM Tris, pH 8.0, 1 mM DTT, 150 mM NaCl, and 0.01% Tween20. Components are pre-incubated for 30 min, then a small volume of reporter probe (Proteros) is added from a highly concentrated stock and incubation is continued for another 30 min.
Ten μl/well of pre-formed complex are transferred into 384 well assay plates (Corning). Compounds to be profiled are serially diluted from […] in DMSO and 60 nl are added to assay plates by pintool transfer (CybiWell, Cybio).
For Kd determination, percent probe displacement values are calculated for each compound concentration and plotted against the compound concentration. […] Since the reporter probe is used at a concentration reflecting its own Kd value, compound Kd values can be calculated according to the Cheng Prusoff equation.

T1 sequence (Q92769 whole entry): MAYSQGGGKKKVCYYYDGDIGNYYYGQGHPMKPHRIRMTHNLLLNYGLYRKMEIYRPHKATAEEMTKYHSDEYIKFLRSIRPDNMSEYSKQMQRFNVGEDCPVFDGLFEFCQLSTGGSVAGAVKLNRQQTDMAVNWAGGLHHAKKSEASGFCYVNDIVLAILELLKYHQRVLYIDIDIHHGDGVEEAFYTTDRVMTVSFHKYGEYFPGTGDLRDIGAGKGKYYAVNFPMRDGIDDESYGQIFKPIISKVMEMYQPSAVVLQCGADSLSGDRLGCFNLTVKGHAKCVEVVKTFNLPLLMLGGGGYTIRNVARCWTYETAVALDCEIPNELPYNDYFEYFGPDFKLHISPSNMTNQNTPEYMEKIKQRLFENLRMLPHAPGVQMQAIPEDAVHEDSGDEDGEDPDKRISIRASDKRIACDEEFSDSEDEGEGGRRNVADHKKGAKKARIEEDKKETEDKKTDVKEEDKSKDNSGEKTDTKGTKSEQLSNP
Chain of HDAC1 (Q13547 whole entry): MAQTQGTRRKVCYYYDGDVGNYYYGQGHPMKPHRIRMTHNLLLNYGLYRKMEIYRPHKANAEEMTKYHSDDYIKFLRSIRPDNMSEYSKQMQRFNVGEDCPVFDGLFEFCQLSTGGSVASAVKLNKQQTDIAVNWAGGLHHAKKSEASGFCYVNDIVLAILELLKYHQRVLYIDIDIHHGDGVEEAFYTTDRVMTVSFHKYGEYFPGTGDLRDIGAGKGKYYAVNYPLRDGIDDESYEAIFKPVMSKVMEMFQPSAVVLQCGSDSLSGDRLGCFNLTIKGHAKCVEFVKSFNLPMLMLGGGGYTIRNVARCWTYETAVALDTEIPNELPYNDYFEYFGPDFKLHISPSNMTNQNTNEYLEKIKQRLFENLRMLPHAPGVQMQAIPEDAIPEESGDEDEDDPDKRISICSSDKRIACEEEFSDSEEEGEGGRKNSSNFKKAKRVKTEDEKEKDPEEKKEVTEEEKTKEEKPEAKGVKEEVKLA

Usually Kd stands for the free concentration of one partner at which half of the binding sites on the other are occupied at equilibrium, for simple one-to-one binding. A lower Kd goes with tighter binding. As to `CC(C)(C)OC(=O)N1CC2CN(C(=O)Nc3cc(-c4ccc(F)cc4)ccc3N)CC2C1` (stereo not shown) [Compound 124], the residence time on HDAC2 [1] worked out at 1790 min; at HDAC1, 584 min. For the same compound, the Kd at HDAC2 [2] and at HDAC1 was 100 to 500 nM throughout.
Turning to `Nc1ccc(-c2ccc(F)cc2)cc1NC(=O)N1CC2CCNCC2C1` (stereo not shown) [Compound 170], the results for the residence time at HDAC2 [1] and on HDAC1 were 2160 min and 342 min, respectively. Besides, the Kd on HDAC2 [2] and on HDAC1 was 500 to 5000 nM throughout.
Take `CNC(=O)N1CC2CN(C(=O)Nc3cc(-c4ccc(F)cc4)ccc3N)CC2C1` (stereo not shown) [Compound 120]: the residence time is 2360 min at HDAC2 [1] and 1550 min on HDAC1. Further, the values for the Kd on HDAC2 [2] and at HDAC1 were 100 to 500 nM and less than 100 nM, respectively.
With `CC(=O)N1C2CCC1CN(C(=O)Nc1cc(-c3ccncc3)ccc1N)C2` [Compound 107], the Kd on HDAC2 [2] and at HDAC1 was more than 5000 nM throughout.
Turning to `Nc1ccc(-c2cc(F)c(F)c(F)c2)cc1NC(=O)N1Cc2ccncc2C1` [Compound 142], the figures for the residence time at HDAC2 [1] and at HDAC1 were 1010 min and 982 min, respectively. For the same compound, the Kd on HDAC2 [2] and on HDAC1 was 500 to 5000 nM throughout.
With `CC(=O)N1C2CCC1CN(C(=O)Nc1cc(-c3ccncc3)ccc1N)C2` [Compound 109], the Kd at HDAC2 [2] and at HDAC1 was more than 5000 nM in each case.
Turning to `Nc1ccc(-c2ccc(F)cc2)cc1NC(=O)N1CC2(CCCCO2)C1` [Compound 153], the values for the residence time at HDAC2 [1] and on HDAC1 were 1290 min and 457 min, respectively. Also, the values for the Kd at HDAC2 [2] and on HDAC1 were 500 to 5000 nM and 100 to 500 nM, respectively.
With `Nc1ccc(-c2ccncc2)cc1NC(=O)c1cn2c(n1)CNCC2` [Compound 123], the results for the residence time on HDAC2 [1] and at HDAC1 were 1610 min and 1050 min, respectively. Moreover, the equilibrium dissociation constant (Kd) on HDAC2 [2] and at HDAC1 was 100 to 500 nM each time.
For `Nc1ccc(-c2ccc(F)cc2)cc1NC(=O)N1CC2CN(C(=O)OC3CC3)CC2C1` (stereo not shown) [Compound 158], the residence time on HDAC2 [1] worked out at 2140 min; at HDAC1, 1220 min. Besides, the Kd was 100 to 500 nM on HDAC2 [2] and less than 100 nM at HDAC1.
Taken in the same sequence, the figures for `N#Cc1ccc(-c2ccc(N)c(NC(=O)N3Cc4ccncc4C3)c2)cc1` [Compound 149] were 573 min, 124 min, 100 to 500 nM and 100 to 500 nM.
With `Nc1ccc(-c2ccc(F)c(Cl)c2)cc1NC(=O)N1Cc2ccncc2C1` [Compound 163], the Kd on HDAC2 [2] lay within 500 to 5000 nM; on HDAC1 it was 100 to 500 nM.
Taken in the same sequence, the figures for `CC(C)(C)OC(=O)N1C2CCC1CN(C(=O)Nc1cc(-c3ccncc3)ccc1N)C2` [Compound 110] were more than 5000 nM and more than 5000 nM.
As to `Nc1ccc(-c2ccc(F)cc2)cc1NC(=O)N1CC2CCC(C1)N2` [Compound 113], the Kd on HDAC2 [2] and at HDAC1 was more than 5000 nM in each case.
Regarding `Nc1ccc(-c2ccncc2)cc1NC(=O)N1CC2CCC(C1)O2` [Compound 105], the Kd on HDAC2 [2] and on HDAC1 was more than 5000 nM each time.
As for `CC(=O)N1CC2CC1CN2C(=O)Nc1cc(-c2ccncc2)ccc1N` (stereo not shown) [Compound 108], the Kd on HDAC2 [2] and at HDAC1 was more than 5000 nM throughout.
Consider `CC(C)(C)OC(=O)N1CC2CC1CN2C(=O)Nc1cc(-c2ccncc2)ccc1N` (stereo not shown) [Compound 104], for which the Kd at HDAC2 [2] and at HDAC1 was more than 5000 nM in each case.
As for `Nc1ccc(-c2ccncc2)cc1NC(=O)N1Cc2cncnc2C1` [Compound 100], on HDAC1, the residence time is 470 min and the Kd was 100 to 500 nM.
On to `CN1CC2CN(C(=O)Nc3cc(-c4ccncc4)ccc3N)CC2C1=O` (stereo not shown) [Compound 115], for which the Kd at HDAC2 [2] and on HDAC1 was 500 to 5000 nM throughout. The compound also returned a residence time on HDAC1 of 98 min.
Take `Cc1cc(F)ccc1-c1ccc(N)c(NC(=O)N2Cc3ccncc3C2)c1` [Compound 141]: the Kd at HDAC2 [2] was more than 5000 nM. At HDAC1, this compound had a residence time of 1350 min and a Kd of more than 5000 nM.
For `CC(C)(C)OC(=O)N1C2CCC1CN(C(=O)Nc1cc(-c3ccncc3)ccc1N)C2` [Compound 106], the Kd on HDAC2 [2] and at HDAC1 was more than 5000 nM throughout.

The values above are taken from patent US10421756B2, “Heterobicyclic N-aminophenyl-amides as inhibitors of histone deacetylase” (Rodin Therapeutics, Inc., priority 2015, dated 2019).
